Ten compounds from patent publication US11846639B2, “Ligand discovery for T cell receptors” (priority 2014, dated 2023) can be followed below.

In one experiment the target is 5cc7 TCR. Put plainly: Surface plasmon resonance affinity of peptide-I-Ek for 5cc7 TCR. Type of experiment: binding, murine. The conditions noted are these: SPR, peptide exchanged into soluble I-Ek. The text has this:
Refolded Murine TCRs for crystallography and affinity measurements. Refolded 2B4, 226, and 5cc7 were created essentially as described. For […] and 5c2 crystal structures, the 5c1 and 5c2 peptides were fused to the N-terminus of 5cc7β via a 10-amino acid GlySer linker. TCRs were purified via size exclusion chromatography and assayed via SDS-PAGE to ensure 1:1 α:β stoichiometry. If there were an excess of TCRβ, ββ homodimer was purified away from αβ heterodimer via ion exchange chromatography on a MonoQ column (GE Healthcare) using a 20 mM Tris pH 8/20 mM Tris pH8+ 500 mM NaCl buffer system. Proteins were then reexchanged into HBS for further use.
Surface plasmon resonance. Affinity measurements for peptides bound to I-Ek for 226, 2B4, and 5cc7 TCRs were determined via surface plasmon resonance on a Biacore T100 (GE Healthcare). 10 μM of peptide of interest was added to biotinylated Clip-I-Ek. 1 U thrombin/100 μg MHC was added and incubated at 37°. After 1 hour, pH was lowered by adding sodium cacodylate pH 6.2 to 30 mM and sample was incubated at 37° overnight. Samples were then neutralized with 40 mM HEPES pH 7.2 and stored at 4° until use. pMHC exchanged with the peptide of interest were bound to a Biacore SA chip (GE Healthcare) at a low surface density (100-200 RU) to ensure no recapture of analyte. I-Ek exchanged with a null peptide (MCC K99E) was used as the reference surface. […]

For a further experiment, the system named is AGA1 T cell receptor. The experiment in a line: Selection of yeast-displayed HLA-B5703 peptide library with AGA1 TCR, deep sequencing read counts. It counts as binding. Conditions: for number of times the peptide was represented, Rd1: after round 1 of selection with AGA1 TCR; for number of times the peptide was represented, Rd2: after round 2 of selection with AGA1 TCR; for number of times the peptide was represented, Rd3: after round 3 of selection with AGA1 TCR; for number of times the peptide was represented, Rd4: after round 4 of selection with AGA1 TCR; for number of times the peptide was represented, Naïve: naïve library before selection. The method, then: Selection of pMHC libraries To maximize sensitivity of selections, all described selection steps were conducted at 4° using cold buffers, and refrigerated centrifuges. All spins were 5,000×g for 1 minute. Before each round of selection, a small sample of yeast (˜1×10^6 cells) were stained with an anti-epitope tag antibody. For the first round of selection, ˜2×10^9 yeast were washed once with PBS+0.5% BSA and 1 mM EDTA (PBE buffer) and then cleared with unloaded Streptavidin Microbeads (250 uL beads in 5 mL PBE) (Miltenyi, 130-048-101) to eliminate any nonspecifically binding yeast clones by incubating 1 hr at 4° with gentle rotation. The yeast were then spun down, resuspended in 5 mL PBE without a wash, and passed through a Miltenyi LS column. […] TCR-binding yeast were then selected via an LS column, washed in SDCAA, and then re-cultured in SDCAA, pH 4.5 at 30° C. overnight. Yeast were re-induced upon reaching OD>2. For each round of selection, at least 10-fold more yeast was used than recovered from the previous round to ensure complete coverage of all selected yeast. Second and third rounds of selection were conducted in the same manner, but with reduced volumes (50 µL of beads in 500 LL PBE). Progress of selections was monitored by counting of cells selected to TCR-bound streptavidin beads as compared to streptavidin beads alone via an Accuri C6 flow cytometer. […] For the final round of selection (conducted when the yeast count enriched by TCR loaded beads was higher than background, usually after 3 rounds), the libraries were stained with 500 nM streptavidin-TCR tetramer as described above, washed 3× with PBE, then incubated with 50 uL anti-Alexa647 Microbeads (Miltenyi, 130-091-395) in 450 µL PBE for 20 minutes. The yeast were washed a final time and passed through a Miltenyi LS column. Enriched yeast were then plated on SDCAA plates for characterization of individual colonies. Individual yeast clones were then screened for tetramer staining as described above. Plasmids containing the selected pMHC were isolated from positive clones via yeast miniprep (Zymoprep II kit, Zymo Research) and sequenced (Sequetech).
Deep sequencing of selection libraries. Pooled plasmids from 5×10^7 yeast from each round of selection were isolated via yeast miniprep (Zymoprep II kit, Zymo Research) and used as PCR template to prepare Illumina samples. Amplicon libraries were designed as follows: (Illumina P5-Truseq read 1-(N8)-Barcode-pMHC-(N8)-Truseq read 2-IlluminaP7). N8 was added immediately after both sequencing primers to generate diversity for low complexity sequencing reads. The adapter and barcode sequences were appended via nested 25-round cycles of PCR of the purified plasmids using Phusion polymerase (NEB). Primers were proximal to the peptide on the pMHC, annealing to the Aga2p leader sequence (5′ end) and MHC β1 domain (3′ end) to ensure high quality sequence reads of the peptide with double coverage. Final PCR products were run on a high percentage agarose gel and purified via gel extraction. PCR products were then quantitated via nanodrop, normalized for each barcoded round of selection to be equally represented, doped with 5-50% PhiX DNA to ensure sufficient sequence diversity for high quality sequence reads, and run on an Illumina MiSeq with 2×150 nt Paired End reads. The initial deep sequencing run, for the 2B4-I-E^k selections, was conducted with 1×150 nt Single End reads. When the sequencing data was analyzed as described below, we saw no significant difference in data quality between single and paired-end reads (as judged by comparing the results for 226/5cc7 when analyzed as single reads vs. paired-end reads). Deep sequencing was conducted at the Stanford Stem Cell Institute Genome Center.
The library was expressed and screened as described above in Example 1, with the AGA1 T cell receptor.
The top 20 peptides after round 3 has the sequences shown below in Table 3. […]

Residues, ends and D or L forms follow the SMILES beside them.

One may read the Kd as the constant that tells how readily two partners part at equilibrium. `CC[C@H](C)[C@H](NC(=O)[C@H](CC(C)C)NC(=O)[C@H](CC(=O)O)NC(=O)[C@H](C)N)C(=O)N[C@@H](C)C(=O)N[C@@H](Cc1ccc(O)cc1)C(=O)N[C@@H](CC(C)C)C(=O)N[C@@H](CCCCN)C(=O)N[C@@H](CCC(N)=O)C(=O)N[C@@H](C)C(=O)N[C@H](C(=O)N[C@@H](CCCCN)C(=O)O)[C@@H](C)O` [MCC, reference compound] (H-ADLIAYLKQATK-OH; N-terminus and C-terminus assumed): at 5cc7 TCR, binding was put at a Kd of 41 µM.

As to “LSLRPEIPLFF [HLA-B5703 library peptide selected with AGA1 TCR]”, in the experiment with AGA1 T cell receptor, the “number of times the peptide was represented, Rd1” value (shortened to “number … Rd1”) is listed as 74; the “number of times the peptide was represented, Rd2” value (“number … Rd2” below) turned out to be 63749; the “number of times the peptide was represented, Rd3” value (from here on “number … Rd3”) was found to be 183724; the “number of times the peptide was represented, Rd4” value (shortened to “number … Rd4”) came to 189891. For the same compound, in the experiment with AGA1 T cell receptor, the “number of times the peptide was represented, Naïve” value (“number … Naïve” below) was determined as 5.

Turning to “KSFVPELKPAF [HLA-B5703 library peptide selected with AGA1 TCR]”, in the experiment on AGA1 T cell receptor, the “number … Rd1” value was 36; the “number … Rd2” value amounted to 37327; the “number … Rd3” value is 157329; the “number … Rd4” value is recorded as 120443. The “number … Naïve” value in the experiment with AGA1 T cell receptor is on record as 2.

Regarding “NSFRPEVAMKY [HLA-B5703 library peptide selected with AGA1 TCR]”, in the experiment on AGA1 T cell receptor, the “number … Rd1” value is reported as 7; the “number … Rd2” value came out at 6013; the “number … Rd3” value was 31331; the “number … Rd4” value came out at 19786. Besides, the “number … Naïve” value in the experiment on AGA1 T cell receptor is recorded as 6.

With “KSLAPEVRDLF [HLA-B5703 library peptide selected with AGA1 TCR]”, in the experiment with AGA1 T cell receptor, the “number … Rd1” value is 8; the “number … Rd2” value was determined as 6502; the “number … Rd3” value is 34865; the “number … Rd4” value came to 22054. In the experiment with AGA1 T cell receptor, the “number … Naïve” value turned out to be 0.

With “RSFVPEIGMGF [HLA-B5703 library peptide selected with AGA1 TCR]”, in the experiment with AGA1 T cell receptor, the “number … Rd1” value was 18; the “number … Rd2” value came to 20370; the “number … Rd3” value is reported as 22329; the “number … Rd4” value turned out to be 65722. Further, in the experiment with AGA1 T cell receptor, the “number … Naïve” value is 8.

Consider “GSLAPEIRMYW [HLA-B5703 library peptide selected with AGA1 TCR]”, for which, in the experiment on AGA1 T cell receptor, the “number … Rd1” value is given as 11; the “number … Rd2” value is reported as 3108; the “number … Rd3” value is on record as 23178; the “number … Rd4” value is listed as 10848. The “number … Naïve” value with AGA1 T cell receptor worked out at 9.

Turning to “KSCTPEVREYF [HLA-B5703 library peptide selected with AGA1 TCR]”, in the experiment with AGA1 T cell receptor, the “number … Rd1” value is on record as 17; the “number … Rd2” value is 15114; the “number … Rd3” value was found to be 94896; the “number … Rd4” value came to 49796. For the same compound, in the experiment on AGA1 T cell receptor, the “number … Naïve” value came to 0.

Turning to “ASFRPELAEFW [HLA-B5703 library peptide selected with AGA1 TCR]”, in the experiment on AGA1 T cell receptor, the “number … Rd1” value was found to be 11; the “number … Rd2” value came out at 14699; the “number … Rd3” value came out at 24829; the “number … Rd4” value worked out at 42208. In the experiment on AGA1 T cell receptor, the “number … Naïve” value is given as 1.

With “KSLTPEVRGYW [HLA-B5703 library peptide selected with AGA1 TCR]”, in the experiment on AGA1 T cell receptor, the “number … Rd1” value amounted to 15; the “number … Rd2” value is 13273; the “number … Rd3” value worked out at 30634; the “number … Rd4” value was 38231. In addition, the “number … Naïve” value with AGA1 T cell receptor stood at 1.
